Tested on: XBP1(u)-luciferase splicing reporter in HepG2 hepatoma cells
Assay: HepG2 XBP1 reporter assay (XBP1(u)-Luc)
Type: cell-based
Conditions: Homo sapiens
Excerpt: HepG2 XBP1 Reporter Assay
HepG2 hepatoma cells were transduced with a retrovirus encoding the cDNA for unspliced (u) XBP1, which contains a non-processed intron, fused to the cDNA for firefly luciferase. Upon induction of ER stress, the non-processed intron of XBP1(u) is spliced out by active IRE1alpha endonuclease. The resulting spliced (s) XBP1 is now in frame with luciferase which causes the production of active luciferase protein, resulting in bioluminescence
HepG2 XBP1(u)-Luc cells were plated […] Cultured cells with a stably transfected reporter construct were plated at approximately 30,000 cells per well into 96 well multi-well plates for twenty four hours. The testing compounds were then added to the wells in 3-fold serial dilutions using a twenty seven micromolar top concentration. A series of control wells for each cell type received only compound solvent. Six hours after the addition of compound, reporter activity for luciferase was assayed, by addition of the SteadyGlo luminescence reagent (Promega). The reporter luminescence activity was measured using Pherastar plate reader (BMG Labtech). Readings was normalized to DMSO only treated cells, and normalized activities were then used in the IC50 calculations. The HepG2 XBP1 reporter assay data are summarized in Tables 3-5: A<0.6 μM; 0.6 μM≤B<2.0 μM; 2.0 μM≤C<5.0 μM; D≥5.0 μM.

[1] = 6 hours after compound addition, Table 4
[2] = 6 h, six hours after addition of compound

IC50 [1] [nM] | IC50 [2] [nM] | Structure (SMILES)
600 to 2000 | – | Cc1cc(N2CCCOCC2c2cc(CS(C)(=O)=O)ccc2Cl)nc(N)n1 (stereo in doubt) [C-52, 4-[(R)-3-(2-Chloro-5-methanesulfonylmethyl-phenyl)-[1,4]oxazepan-4-yl]-6-methyl-pyrimidin-2-ylamine]
< 600 | – | CCNc1cc(Cl)c([C@H]2COCCCN2c2cc(C)nc(N)n2)cc1C [C-146]
– | 600 to 2000 | Cc1cc(N2CCCOC[C@@H]2c2cc(O)c(C(N)=O)cc2Cl)nc(N)n1 [D-115]
< 600 | – | Cc1cc(N2CCCOC[C@@H]2c2cc3c(cc2Cl)CCN3)nc(N)n1 [C-134]
< 600 | – | Cc1cc(N2CCCOC[C@@H]2c2cc3c(cc2Cl)n(C)c(=O)n3C)nc(N)n1 [C-93]
< 600 | – | Cc1cc(N2CCCOCC2c2ccc(OCS(C)(=O)=O)cc2Cl)nc(N)n1 (stereo not drawn) [C-120, 4-[3-(2-Chloro-4-methanesulfonylmethoxy-phenyl)-[1,4]oxazepan-4-yl]-6-methyl-pyrimidin-2-ylamine]
600 to 2000 | – | CCCOc1cc(Cl)c(C2COCCCN2c2cc(C)nc(N)n2)cc1OC (stereo not drawn) [C-47]
< 600 | – | Cc1cc(N2CCCOC[C@@H]2c2cc(C(F)(F)F)c(N)cc2Cl)nc(N)n1 [C-119]
600 to 2000 | – | Cc1cc(N2CCCOCC2c2cc3c(cc2Cl)OCC(C)(C)CO3)nc(N)n1 (stereo not drawn) [C-55]
≥ 5000 | – | Cc1cc(N2CC(C)COCC2c2ccc(CS(C)(=O)=O)cc2Cl)nc(N)n1 (stereo not drawn) [C-63, 4-[3-(2-Chloro-4-methanesulfonylmethyl-phenyl)-6-methyl-[1,4]oxazepan-4-yl]-6-methyl-pyrimidin-2-ylamine]
– | ≥ 5000 | Cc1cc(N2CCCOCC2c2ccc(Br)cc2OC(F)(F)F)nc(N)n1 [D-140]
– | < 600 | Cc1cc(N2CCCOC[C@@H]2c2ccc([C@@H]3CCCN3)cc2Cl)nc(N)n1 [D-91]
600 to 2000 | – | COc1cc(C2COCCCN2c2ccnc(N)n2)c(Cl)cc1OC1CCCC1 (stereo not drawn) [C-102]
– | 2000 to 5000 | COC(=O)Cc1cc(C2COCCCN2c2cc(C)nc(N)n2)c(Cl)cc1C#N [D-53]
– | ≥ 5000 | CS(=O)(=O)c1ccc(C2COCCCN2c2cc(C(F)(F)F)nc(N)n2)c(Cl)c1 [D-188]
≥ 5000 | – | CCOc1cc(Cl)c([C@@H]2COCCCN2c2cc(C)nc(N)n2)cc1OCC [C-104]
– | 600 to 2000 | CCOc1cc(C2COCCCN2c2cc(C)nc(N)n2)c(Cl)cc1OCC(=O)NC(C)(C)C [D-47]
< 600 | – | CCOc1cc(C2COCCCN2c2cc(C)nc(N)n2)c(Cl)cc1OC (stereo not drawn) [C-29]
< 600 | – | Cc1cc(N2CCCOC[C@@H]2c2cc3c(cc2Cl)NCC3)nc(N)n1 [C-59]
< 600 | – | COc1cc(Cl)c([C@@H]2COCCCN2c2cc(C)nc(N)n2)cc1O [C-94]
– | 600 to 2000 | Cc1cc(N2CCCOC[C@@H]2c2ccc(C3CCN(C4COC4)CC3)cc2Cl)nc(N)n1 [D-69]
– | < 600 | Cc1cc(N2CCCOCC2c2cc(O)c(NC(=O)C3CC3)cc2Cl)nc(N)n1 [D-112]
– | < 600 | Cc1cc(N2CCCOCC2c2cc3c(cc2Cl)NC[C@@](C)(C(=O)NC2CC2)O3)nc(N)n1 (stereo partly drawn) [D-122]
≥ 5000 | – | Cc1cc(N2CCCOCC2c2cc3c(cc2Cl)CCCN3C)nc(N)n1 (stereo not drawn) [C-129]
< 600 | – | Cc1cc(N2CCCOC[C@@H]2c2cc(C)c(N)cc2Cl)nc(N)n1 [C-115]
2000 to 5000 | – | Cc1cc(N2CCCOCC2c2cc(C)c(Cl)cc2Cl)nc(N)n1 (stereo not drawn) [C-10]

IC50 [1] [nM] | IC50 [2] [nM] | Structure (SMILES)
– | 2000 to 5000 | Cc1cc(N2CCCOCC2c2ccc(C3CCN(C4COC4)CC3)cc2Cl)nc(N)n1 [D-70]
– | 2000 to 5000 | Cc1cc(N2CCCOC[C@@H]2c2cc(O)c(C(=O)NC(C)C)cc2Cl)nc(N)n1 [D-123]
– | ≥ 5000 | COc1ccc([C@@H]2COCCCN2c2cc(C)nc(N)n2)c(Cl)c1 [D-168]
< 600 | – | Cc1cc(N2CCCOC[C@@H]2c2ccc(CS(C)(=O)=O)cc2F)nc(N)n1 [C-50, 4-[(S)-3-(2-Fluoro-4-methanesulfonylmethyl-phenyl)-[1,4]oxazepan-4-yl]-6-methyl-pyrimidin-2-ylamine]
≥ 5000 | – | Cc1cc(N2CCCOC[C@@H]2c2cc3c(cc2Cl)OCC(=O)N3)nc(N)n1 [C-67]
600 to 2000 | – | CC1=C(F)CN(c2ccc([C@H]3COCCCN3c3cc(C)nc(N)n3)c(Cl)c2)CC1 [C-123]
– | < 600 | Cc1cc(N2CCCOCC2c2cc3c(cc2Cl)NC[C@@](C)(C(=O)NC(C)C)O3)nc(N)n1 (stereo partly drawn) [D-124]
– | ≥ 5000 | Cc1cc(N2CCCOCC2c2cc(CC(=O)O)c(C#N)cc2Cl)nc(N)n1 [D-156]
≥ 5000 | – | Cc1cc(N2CC3(CC3)COC[C@@H]2c2ccc(CS(C)(=O)=O)cc2Cl)nc(N)n1 [C-136]
– | 600 to 2000 | COc1cc(C2COCCCN2c2cc(C)nc(N)n2)c(Cl)cc1OCC(=O)NC(C)(C)C [D-32]
– | ≥ 5000 | Cc1cc(N2CCCOC[C@H]2c2cc(O)c(C(=O)NCCO)cc2Cl)nc(N)n1 [D-185]
– | < 600 | Cc1cc(N2CCCOC[C@@H]2c2ccc(NCC3CCOC3)cc2Cl)nc(N)n1 (stereo partly drawn) [D-83]
– | ≥ 5000 | Cc1cc(N2CCCOC[C@H]2c2cc(O)c(C(N)=O)cc2Cl)nc(N)n1 [D-180]
2000 to 5000 | – | Cc1cc(N2CCCOCC2c2cc3c(cc2Cl)CCCN3)nc(N)n1 (stereo not drawn) [C-88]
– | < 600 | Cc1cc(N2CCCOCC2c2cc(O)c(OC(F)(F)F)cc2Cl)nc(N)n1 [D-74]
600 to 2000 | – | CC(=O)Nc1cc(Cl)c(N2CCCOCC2c2cc(C)nc(N)n2)cc1C (stereo not drawn) [C-143]
< 600 | – | CNc1cc(Cl)c(C2COCCCN2c2cc(C)nc(N)n2)cc1C (stereo not drawn) [C-25]
< 600 | – | Cc1cc(N2CCCOCC2c2cc3c(cc2Cl)NCCC3)nc(N)n1 (stereo not drawn) [C-43]
600 to 2000 | – | COc1cc(Cl)c([C@H]2COCCCN2c2cc(C)nc(N)n2)cc1OC(C)C [C-144]
600 to 2000 | – | Cc1cc(N2CCCOCC2c2cc(N)c(C(F)(F)F)cc2Cl)nc(N)n1 (stereo not drawn) [C-77]
– | < 600 | COc1cc(OC)c(C2COCCCN2c2cc(C)nc(N)n2)cc1O [D-127]
– | ≥ 5000 | Cc1cc(N2CCCOC[C@@H]2c2cc(O)c(C(=O)NC3CC3)cc2Cl)nc(N)n1 [D-131]
– | ≥ 5000 | CS(=O)(=O)c1ccc(C2COCCCN2c2ccnc(N)n2)c(Cl)c1 [D-138]
≥ 5000 | – | Cc1cc(N2CCCOC[C@H]2c2cc(C)c(N)cc2Cl)nc(N)n1 [C-114]
< 600 | – | Cc1cc(N2CC(O)COC[C@@H]2c2ccc(N3CCC(C)(O)CC3)cc2Cl)nc(N)n1 (stereo partly drawn) [C-124]
< 600 | – | Cc1cc(N2CCCOCC2c2ccc(OC[C@H](O)CO)cc2Cl)nc(N)n1 (stereo partly drawn) [C-61, (R)-3-{4-[4-(2-Amino-6-methyl-pyrimidin-4-yl)-[1,4]oxazepan-3-yl]-3-chloro-phenoxy}-propane-1,2-diol]

IC50 [1] [nM] | IC50 [2] [nM] | Structure (SMILES)
– | 600 to 2000 | Cc1cc(N2CCCOCC2c2ccc(NC(=O)CC(C)(C)C)cc2Cl)nc(N)n1 [D-96]
– | < 600 | Cc1cc(N2CCCOC[C@@H]2c2cc(O)c(C(=O)N3CCOCC3)cc2Cl)nc(N)n1 [D-137]
– | 600 to 2000 | CCOc1cc(C2COCCCN2c2cc(C)nc(N)n2)c(Cl)cc1OCC(=O)OC [D-44]
– | ≥ 5000 | Cc1cc(N2CCCOC[C@H]2c2cc(CN)c(Cl)cc2C)nc(N)n1 [D-174]
– | < 600 | CCOc1cc([C@H]2COCCCN2c2cc(C)nc(N)n2)c(Cl)cc1OCC(N)=O [D-101]
< 600 | – | Cc1cc(N2CCCOCC2c2ccc(CS(C)(=O)=O)cc2OC(F)F)nc(N)n1 (stereo not drawn) [C-75]
2000 to 5000 | – | Cc1cc(N2CCCOC=C2c2c(O)cc(N3CCC(C)(O)CC3)cc2Cl)nc(N)n1 [C-127]
– | ≥ 5000 | Cc1cc(N2CCCOC[C@@H]2c2cnc(CS(C)(=O)=O)cc2Cl)nc(N)n1 [D-166]
– | ≥ 5000 | Cc1cc(N2CCCOC[C@@H]2c2ccc(C(C)(C)S(C)(=O)=O)cc2Cl)nc(N)n1 [D-191]
< 600 | – | CCOc1cc(Cl)c([C@H]2COCCCN2c2cc(C)nc(N)n2)cc1OC [C-85]
– | 600 to 2000 | Cc1cc(N2CCCOCC2c2cc(O)c(S(C)(=O)=O)cc2Cl)nc(N)n1 [D-79]
600 to 2000 | – | COC(=O)COc1cc(Cl)c(C2COCCCN2c2cc(C)nc(N)n2)cc1OC (stereo not drawn) [C-44]
– | ≥ 5000 | COC(=O)c1cc(Cl)c(C2COCCCN2c2cc(C)nc(N)n2)cc1C#N [D-135]
– | < 600 | Cc1cc(N2CCCOC[C@@H]2c2cc3c(cc2Cl)NC[C@@](C)(C(=O)N(C)C)O3)nc(N)n1 [D-132]
– | < 600 | C#CCOc1cc(Cl)c([C@H]2COCCCN2c2cc(C)nc(N)n2)cc1OC [D-105]
– | ≥ 5000 | Cc1cc(N2CCCOC[C@H]2c2cc(O)c(C(=O)NC(C)C)cc2Cl)nc(N)n1 [D-121]
– | ≥ 5000 | Cc1cc(N2CCCOC[C@H]2c2cc(O)c(C)cc2Cl)nc(N)n1 [D-165]
< 600 | – | Cc1cc(N2CCCOCC2c2cc(N)c(OC(F)(F)F)cc2Cl)nc(N)n1 (stereo not drawn) [C-141]
– | ≥ 5000 | Cc1cc(N2CCCOCC2c2ccc(S(N)(=O)=O)cc2)nc(N)n1 [D-102]
< 600 | – | Cc1cc(N2CCCOC[C@H]2c2cc3c(cc2Cl)OCC(=O)N3)nc(N)n1 [C-68]
< 600 | – | COc1cc(C2COCCCN2c2cc(C)nc(N)n2)c(Cl)cc1OCC#N (stereo not drawn) [C-98]
≥ 5000 | – | CC[C@@H]1COC[C@@H](c2ccc(CS(C)(=O)=O)cc2Cl)N(c2cc(C)nc(N)n2)C1 [C-110]
– | ≥ 5000 | CCOc1cc(C2COCCCN2c2cc(C)nc(N)n2)c(Cl)cc1OCC(=O)O [D-160]
2000 to 5000 | – | COc1cc(C2COCCCN2c2cc(C)nc(N)n2)c(Cl)cc1Cl (stereo not drawn) [C-46]
600 to 2000 | – | Cc1cc(N2CCCOCC2c2cc(Cl)c(OC(F)F)cc2Cl)nc(N)n1 (stereo not drawn) [C-57]

Structure (SMILES) | IC50 [1] [nM] | IC50 [2] [nM]
Cc1cc(N2CCCOCC2c2sc(Cl)nc2Cl)nc(N)n1 [D-103] | – | 2000 to 5000

Reference: US11440907B1 (Merck Patent GmbH, priority 2018, dated 2022)
